Laboratory results from PubChem BioAssay (NCI).
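96-well plates; 48 h exposure; 5 concentrations. Endpoints by linear interpolation between flanking doses. Not reached: highest tested concentration assigned. Abbreviation: GI50, concentration required for 50% inhibition of growth. TGI: total growth inhibition.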

Tests used:
Assay in all cases: DTP human tumour cell line panel, 48 h
[1] = system: A549 NSCLC
[2] = system: EKVX NSCLC
[3] = system: HT29 colon
[4] = system: M14 melanoma
[5] = system: NCI-H226 lung
[6] = system: OVCAR-3 ovarian
[7] = system: OVCAR-4 ovarian
[8] = system: SF-268 CNS
[9] = system: SN12C renal
[10] = system: SNB-19 CNS

Row | Structure (SMILES) | GI50 [1] [µM] | TGI [1] [µM] | GI50 [2] [µM] | TGI [2] [µM] | GI50 [3] [µM] | TGI [3] [µM] | GI50 [4] [µM] | TGI [4] [µM] | GI50 [5] [µM] | TGI [5] [µM] | GI50 [6] [µM] | TGI [6] [µM] | GI50 [7] [µM] | TGI [7] [µM] | GI50 [8] [µM] | TGI [8] [µM] | GI50 [9] [µM] | TGI [9] [µM] | GI50 [10] [µM] | TGI [10] [µM]
1 | O=S(=O)(N=C1C(Cl)=C(Cl)C(=NS(=O)(=O)c2ccccc2)C(Cl)=C1Cl)c1ccccc1 | 32.3 | > 100 | 31.5 | > 100 | 15.4 | 49.2 | 16.5 | 34.7 | 21.6 | 56.2 | 9.53 | 26 | 22.1 | > 100 | 16 | 42.2 | 29.9 | > 100 | 38.2 | > 100
2 | COc1cc(CCC[P+](c2ccccc2)(c2ccccc2)c2ccccc2)c(OC)c2c1OCO2 | 3.95 | 68.9 | 2.83 | 35.2 | 0.812 | 41 | 1.8 | 13.7 | 3.13 | 21.3 | 0.633 | 10.7 | 1.08 | 16.1 | 2.13 | 13.1 | 2.56 | 10.5 | 1.17 | 10.9
3 | Cc1ccc(OCC2CO2)c(Br)c1 (stereo not given) |  | 62.2 |  | 35.8 |  | 29.1 |  | 95.9 |  | 34.1 |  | 68 |  | 29.4 |  | 42.6 |  | 45 |  | > 100
4 | CSc1cc([C@@H]2C[C@H]2c2ccc(Cl)cc2)on1 | 21.6 | > 100 | 29.8 | 55.8 | 18.6 | > 100 | 9.27 | > 100 | 11.4 | 36.8 | 15.4 | 33.4 | 31.3 | > 100 | 21 | 46.3 | 5.17 | 20.5 | 27.4 | > 100
5 | Cc1cc(OCc2nnc3n2S(=O)(=O)c2ccccc2N3C)ccc1Cl |  | > 100 |  | > 100 |  | > 100 |  | > 100 |  | > 100 |  | 57.2 |  | 24.2 |  | 68 |  | > 100 |  | 39.1
6 | CC1SC(c2ccccc2Cl)N(NC(=O)C(O)c2ccccc2)C1=O (stereo not given) | 52.3 | > 100 | > 100 | > 100 | > 100 | > 100 | 94.3 | > 100 | > 100 | > 100 | 35.4 | > 100 | > 100 | > 100 | > 100 | > 100 | > 100 | > 100 | > 100 | > 100
7 | O=[N+]([O-])c1nccn1CC(O)c1ccccc1 (stereo not given) |  | > 100 |  | > 100 |  | > 100 |  | > 100 |  | > 100 |  | > 100 |  | > 100 |  | > 100 |  | > 100 |  | > 100
8 | CCOC(=O)C1(C(=O)OCC)C(C(C)(C)C)=C(C)c2ccccc21 |  | > 100 |  | 56.2 |  | 23.8 |  | 39.5 |  | 28.5 |  | 24.9 |  | 45.3 |  | 39.1 |  | 28.7 |  | 45
9 | O=C(C[n+]1ccccc1)N/N=C(/CCC(=O)N(Cc1ccccc1)Cc1ccccc1)CC(=O)c1ccccc1 |  | > 100 |  | > 100 |  | > 100 |  | > 100 |  | > 100 |  | > 100 |  | > 100 |  | > 100 |  | > 100 |  | > 100
